Test results reported in ChEMBL document CHEMBL1150443, “Synthesis and ion-binding properties of an immobilized bis-cysteine peptide” (Bioorg Med Chem Lett, 1992).
Active and inactive are the calls of the source. The calls are words filed in the database; no cut-off is given here.

Tests used:
[1] = Binding constant of the ion pair ( lithium picrate salt) to the peptide-matrix was calculated from the spectrophotometric determination of the free Na+ picrate salt after equilibration with the immobilized peptide in trifluoroethanol
[2] = Binding constant of the ion pair ( lithium picrate salt) to the peptide-matrix was calculated from the spectrophotometric determination of the free […] picrate salt after equilibration with the immobilized peptide in trifluoroethanol; NA=No affinity
[3] = Binding constant of the ion pair ( lithium picrate salt) to the peptide-matrix was calculated from the spectrophotometric determination of the free Li+ picrate salt after equilibration with the immobilized peptide in trifluoroethanol
[4] = Binding constant of the ion pair ( sodium picrate salt) to the peptide-matrix was calculated from the spectrophotometric determination of the free Na+ picrate salt after equilibration with the immobilized peptide in trifluoroethanol
[5] = Binding constant of the ion pair ( lithium picrate salt) to the peptide-matrix was calculated from the spectrophotometric determination of the free Li+ picrate salt after equilibration with the immobilized peptide in trifluoroethanol; NA=No affinity
[6] = Binding constant of the ion pair ( potassium picrate salt) to the peptide-matrix was calculated from the spectrophotometric determination of the free K+ picrate salt after equilibration with the immobilized peptide in trifluoroethanol; NA=No affinity

| Log K [1] | Activity [2] | Log K [3] | KNa [4] [M⁻¹] | Activity [5] | Activity [6] | SMILES |
| --- | --- | --- | --- | --- | --- | --- |
| 2.11 | inactive | 2.6 | – | – | – | CC(=O)N[C@@H]1CSSC[C@@H](NC(C)=O)C(=O)N2CCC[C@@H]2C(=O)N[C@H](C(C)C)C(=O)N[C@H](C(N)=O)CSSC[C@@H](C(N)=O)NC(=O)[C@@H](C(C)C)NC(=O)[C@H]2CCCN2C1=O |
| – | – | – | 5200 | inactive | inactive | CC(=O)N[C@@H]1CSSC[C@@H](NC(C)=O)C(=O)N2CCC[C@@H]2C(=O)N[C@H](C(C)C)C(=O)N[C@H](C(=O)O)CSSC[C@@H](C(N)=O)NC(=O)[C@@H](C(C)C)NC(=O)[C@H]2CCCN2C1=O |
